The values that follow come from patent US3948928A, “3-Substituted-1,2-benzisoxazoles and pharmaceutically acceptable acid addition salts thereof” (Dainippon Pharmaceutical Co., Ltd., priority 1972, dated 1976).

Test [1] deals with hypothermy induced by reserpine. The test is described as follows: Anti-reserpine activity: antagonism against the hypothermy induced by reserpine. It counts as in vivo, male dd YS-mice. The following applies: 100 mg/kg orally; for Inhibition (%): reserpine 5 mg/kg i.p. simultaneously, rectal temperature at 4 hours; for Ratio to AMT: inhibition relative to amitriptyline (AMT).
Description: The anti-reserpine activity of the test compounds was studied by the antagonism against the hypothermy induced by reserpine on male dd YS-mice, weighing 18 to 20 g, each group being 5 mice. The test compounds were orally administered in a dose of 100 mg/kg and simultaneously reserpine was intraperitoneally administered in a dose of 5 mg/kg to the mice. The body temperature was measured on the rectal temperature of the mice at 4 hours after the administration of the test compounds by thermister BMG III-130, made by Shibaura Electric Co., Ltd.
The test system of another test is renal hypertensive rats. The experiment in a line: Anti-hypertensive activity in renal hypertensive rats (plethysmographic tail blood pressure). In kind it is in vivo, male Wistar rats.
The subject of test [2] is 1-dopa potentiating activity. The test is described as follows: 1-Dopa potentiating activity (mortality of mice given 1-dopa). It counts as in vivo, dd YS-mice. The following applies: one hour before 1-dopa 300 mg/kg i.p. The procedure: To dd YS-mice, weighing 18 to 20 g (each group being 10 mice) was intraperitoneally administered 300 mg/kg of 1-dopa: 3-(3,4-dihydroxyphenyl)-L-alanine. The mice were entered into a plastic cage having 15 × 15 cm^2 in size and allowed to live gregariously and then the symptom of the mice was observed. The test compounds were orally administered to the mice at one hour before the administration of 1-dopa. The activity of the test compounds was calculated by the mortality.

Test [3] concerns spontaneously hypertensive rats. The test is described as follows: Anti-hypertensive activity in spontaneously hypertensive rats. It counts as in vivo, male Wistar rats. The procedure:
The blood pressure was measured by plethysmographic method, in which the blood pressure was measured indirectly by using a tail of animal without anesthesia. That is, after being warmed at 38°C for 10 minutes, a tail of rat was pressed by cuff and then the pressure was relieved and thereby the blood flow started again to increase the volume of tail. The blood pressure at that time was measured.
Spontaneously hypertensive rats were prepared by using male Wistar rats weighing 300 to 350 g and being 20 or more weeks of age. […] The blood pressure in rats was measured at 0.5, 1, 3, 5, 7, 24 and 30 hours after the administration of the test compounds in the same manner as described in Test 3, (B).

Where a name gives a salt, the structure may show the parent alone.

Excerpt for renal hypertensive rats: Male Wistar rats weighing 180 to 200 g and having a blood pressure of 125 to 145 mmHg were anesthetized with ether and the left abdominal wall of rats was cut and thereby the renal artery was laid bare. The origin part of the aorta was stripped off and to the renal artery was fixed a silver clip which was made by two-folding at interval of 0.2 mm a silver thin board having 2.0 mm in width, 6.0 mm in length and 0.3 mm in thickness, and then the abdominal wall was stitched. At 2 months after the operation, the blood pressure of the rats was increased to 150 or more mmHg. The rats thus treated were used in the test as the renal hypertensive rats.
The blood pressure was measured before the administration of test compounds and at 0.5, 1, 3, 5, 7, 9 and 24 hours after the administration of the test compounds.

For the compound `CN(C)CCC=C1c2ccccc2CCc2ccccc21` [Amitriptyline, 3-(10,11-Dihydro-5H-dibenzo[a,d]-cyclohepten-5-ylidene)-N,N-dimethylpropylamine, reference compound], the “Inhibition (%)” value in test [1] came out at 48.9%.
As to “6,7-dimethoxy-1,2-benzisoxazole-3-acetamidoxime hydrochloride [Example 7]”, in the test on renal hypertensive rats (100 mg/kg p.o.), the “Blood pressure Decrease percent” value is given as 21.0%, the “Blood pressure Duration” value stood at 72 h and the “Blood pressure Peak time” value was 5 h.
Take `Cl.NC(Cc1noc2ccccc12)=NO` [Test compound 2 (Table 1), 1,2-Benzisoxazole-3-acetamidoxime hydrochloride]: in test [1], the “Inhibition (%)” value was found to be 64.9% and the “Ratio to AMT” value is 1.33.
For `NC12CC3CC(CC(C3)C1)C2` [Amantadine, 1-aminoadamantane, reference compound], the figures for the “Number of dead mice/number of used mice” value in test [2] (dose 100 mg/kg orally), in test [2] (dose 200 mg/kg orally) and in test [2] (dose 300 mg/kg orally) were 0/10, 3/10 and 5/10, respectively.
`Cl.Oc1ccc2c(CC3=NCCN3)noc2c1` [Test compound 7 (Table 3), 6-Hydroxy-3-(2-imidazolin-2-yl)methyl-1,2-benzisoxazole hydrochloride]: in test [3] (10 mg/kg p.o.), the “Blood pressure Decrease percent” value came out at 14%, the “Blood pressure Duration” value amounted to 9 h and the “Blood pressure Peak time” value stood at 7.0 h.
As for `Cl.NC(Cc1noc2ccc(F)cc12)=NO` [Test compound 3 (Table 4), 5-Fluoro-1,2-benzisoxazole-3-acetamidoxime hydrochloride], in test [3] (1 mg/kg p.o.), the “Blood pressure Decrease percent” value amounted to 20%, the “Blood pressure Duration” value was found to be 24 h and the “Blood pressure Peak time” value lay in the range of 7 to 8 h. Moreover, in test [3] (10 mg/kg p.o.), the “Blood pressure Decrease percent” value was 22%, the “Blood pressure Duration” value was 24 h and the “Blood pressure Peak time” value came to 7.0 h.
For `Cl.Fc1ccc2onc(CC3=NCCN3)c2c1` [Test compound 4 (Table 4), 5-Fluoro-3-(2-imidazolin-2-yl)methyl-1,2-benzisoxazole hydrochloride], in test [3] (10 mg/kg p.o.), the “Blood pressure Decrease percent” value worked out at 28%, the “Blood pressure Duration” value came to 30 h and the “Blood pressure Peak time” value came out at 7.0 h.
`N=C(Cc1noc2ccccc12)N1CCN(c2ccccc2)CC1` [Test compound 4 (Table 3), 1-Phenyl-4-(1,2-benzisoxazole-3-acetimidoyl)piperazine hydrochloride]: in the test with renal hypertensive rats (100 mg/kg p.o.), the “Blood pressure Decrease percent” value was determined as 10.7%, the “Blood pressure Duration” value stood at 30 h and the “Blood pressure Peak time” value came out at 3 h.
Take `NC(Cc1noc2ccccc12)=NOC(=O)c1ccccc1` [Test compound 3 (Table 1), O-Benzoyl-1,2-benzisoxazole-3-acetamidoxime]: in test [1], the “Inhibition (%)” value is 57.1% and the “Ratio to AMT” value is on record as 1.17.
Turning to `COc1ccc2c(CC(N)=NO)noc2c1.Cl` [Test compound 5 (Table 1), 6-Methoxy-1,2-benzisoxazole-3-acetamidoxime hydrochloride], in test [1], the “Inhibition (%)” value worked out at 69.2% and the “Ratio to AMT” value came to 1.42.
Consider `CNC(=N)Cc1noc2ccccc12` [Test compound 5 (Table 3), 1,2-Benzisoxazole-3-(N-methyl)acetamidine hydrochloride], for which, in the test with renal hypertensive rats (100 mg/kg p.o.), the “Blood pressure Decrease percent” value is recorded as 19.3%, the “Blood pressure Duration” value is 24 h and the “Blood pressure Peak time” value is 3 h.
On the same counts, the results for `Cl.N=C(N)Cc1noc2ccccc12` [Test compound 2 (Table 3), 1,2-Benzisoxazole-3-acetamidine hydrochloride] are 34.4%, 30 h and 1 to 3 h.
On the same counts, the results for `Cl.Oc1ccc2onc(CC3=NCCN3)c2c1` [Test compound 6 (Table 3), 5-Hydroxy-3-(2-imidazolin-2-yl)methyl-1,2-benzisoxazole hydrochloride] are 56.5%, 30 h and 5 h.
For `Cl.N=C(Cc1noc2ccccc12)NN` [Test compound 3 (Table 3), 1,2-Benzisoxazole-3-acetamidrazone hydrochloride] the same measures were 19.0%, 24 h and 7 h.
Turning to `Cl.NC(CCc1noc2ccccc12)=NO` [Test compound 6 (Table 1), 1,2-Benzisoxazole-3-propionamidoxime hydrochloride], in test [1], the “Inhibition (%)” value came out at 58.1% and the “Ratio to AMT” value is given as 1.12.
For “1,2-Benzisoxazole-3-acetamidoxime [Example 1]”, the “Number of dead mice/number of used mice” value is recorded as 1/10 in test [2] (dose 20 mg/kg orally), 3/10 in test [2] (dose 50 mg/kg orally) and 7/10 in test [2] (dose 100 mg/kg orally). Further, the “Inhibition (%)” value in test [1] amounted to 66.9%. Further, the “Ratio to AMT” value in test [1] came out at 1.37. Besides, the “Blood pressure Decrease percent” value in test [3] (10 mg/kg p.o.) is 16%; with renal hypertensive rats (3 mg/kg p.o.) it was 18.2%; in the test with renal hypertensive rats (10 mg/kg p.o.) it was 36.3%; with renal hypertensive rats (30 mg/kg p.o.) it was 38.8%. Besides, the “Blood pressure Duration” value in test [3] (10 mg/kg p.o.) is 24 h; in the test with renal hypertensive rats (3 mg/kg p.o.) it was 24 h; in the test with renal hypertensive rats (10 mg/kg p.o.), 30 h; in the test on renal hypertensive rats (30 mg/kg p.o.) it was 48 h. The “Blood pressure Peak time” value in test [3] (10 mg/kg p.o.) was found to be 5.0 h; in the test on renal hypertensive rats (3 mg/kg p.o.) it was 7 h; with renal hypertensive rats (10 mg/kg p.o.), 7 h; in the test with renal hypertensive rats (30 mg/kg p.o.), 3 h.
For the compound `Cc1cccc2c(CC3=NCCN3)noc12.Cl` [Test compound 4 (Table 1), 7-Methyl-3-(2-imidazolin-2-yl)methyl-1,2-benzisoxazole hydrochloride], in test [1], the “Inhibition (%)” value amounted to 51.9% and the “Ratio to AMT” value was 1.06.
